Several values for one entry are separate records, joined by “and”; a condition that tells them apart may be missing. Equal values may be shown once. Read-outs that look alike come from different tables or passages of the source. No end group written: not given here.
Assays:
tryptase [1] = target: T1, tryptase (Homo sapiens, UniProt Q15661); test: Inhibition of the Ca2+ response of myocytes to HMC-1 mast cell filtrate; type: cell-based; set-up: HMC-1 human mast cells; endogenous in cells; host or cells: HMC-1 human mast cells, filtrate after degranulation with substance P
T1 sequence (Q15661 31-275): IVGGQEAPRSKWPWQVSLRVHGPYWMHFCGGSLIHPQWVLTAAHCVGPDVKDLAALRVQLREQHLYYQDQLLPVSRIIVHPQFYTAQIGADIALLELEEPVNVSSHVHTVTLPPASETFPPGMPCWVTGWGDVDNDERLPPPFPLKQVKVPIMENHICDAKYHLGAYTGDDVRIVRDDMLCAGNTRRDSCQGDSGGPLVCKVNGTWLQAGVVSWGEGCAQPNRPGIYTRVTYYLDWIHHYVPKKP
Protocol: (§1) Degranulation of HMC-1 cells (human mast cell line) with substance P was induced, and a filtrate for Ca^2+ responses in myocytes was assessed, to determine if mast cells release proteases that cleave and activate PAR-2.
(§2) Myocytes were incubated in physiological salt solution (PSS) with 2.5 μM Fura-2/AM for 20 min at 37° C. Fluorescence was measured in individual cells using an ICCD video camera (Stanford Photonics, Stanford, Calif.) and a video microscopy acquisition program (Axon Industries, Foster City, Calif.). Fluorescence was measured at 340 and 380 nm excitation and 510 nm emission. The ratio of the fluorescence at the two excitation wavelengths, which is proportional to the [Ca^2+ ]i, was calculated. Fresh cells were studied with each agonist and a minimum of 10 cells analyzed in 2-4 experiments on different days.
HMC-1 human mast cells (300 μl of 7×10^6 /ml in PSS containing 25 μg/ml heparin) were incubated with 100 μM substance P for 5 min at room temperature to induce degranulation. The suspension was filtered and assayed for stimulation of Ca^2+ mobilization.

tryptase [2] = target: T1, tryptase; test: Ca2+ response of myocytes to tryptase pre-incubated with inhibitor; type: cell-based
Protocol: as §2

tryptase [3] = target: T1, tryptase; settings: cited from earlier work
[4] = system: strips of rat proximal colon
[5] = system: mice with cecal manipulation; test: GI transit in mice with surgically induced ileus; type: in vivo; settings: 1 mg/kg orally 30 minutes prior to anesthesia
Protocol: GI transit was measured in fed mice by oral gavage pf 0.3 ml carmine red in methylcellulose. Whole GI transit time was defined as the appearance of the first red fecal pellet. Upper GI transit time was defined as the appearance as the percentage of the distance traveled along the small intestine by the marker in 30 minutes. Cecal manipulation for 5 minutes or skin incision alone was performed under halothane anesthesia and the marker administered 1 hour after surgery.
Skin incision alone had little effect on transit time.

PAR-2 = target: T2, PAR-2 (Rattus norvegicus, UniProt Q63645); test: Ca2+ mobilization by colonic myocytes (Fura-2); type: cell-based; settings: for EC50: read-out: EC50, increase in [Ca2+]i
T2 construct: endogenous in cells; host or cells: cultured colonic myocytes (rat)
T2 sequence (Q63645 26-397): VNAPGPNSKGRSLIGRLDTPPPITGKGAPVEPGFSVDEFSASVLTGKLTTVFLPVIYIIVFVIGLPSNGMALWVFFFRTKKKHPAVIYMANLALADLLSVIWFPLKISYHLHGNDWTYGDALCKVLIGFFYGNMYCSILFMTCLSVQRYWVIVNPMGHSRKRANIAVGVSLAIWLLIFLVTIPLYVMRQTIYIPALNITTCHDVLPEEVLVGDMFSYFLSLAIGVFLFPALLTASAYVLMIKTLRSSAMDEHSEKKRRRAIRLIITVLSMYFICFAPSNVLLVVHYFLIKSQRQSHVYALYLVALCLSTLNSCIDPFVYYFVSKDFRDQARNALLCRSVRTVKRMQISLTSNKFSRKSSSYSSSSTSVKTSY
Protocol: Ac. Ca^2+ Mobilization by Colonic Myocytes. The activation of PAR-2 in myocytes was assessed by measuring Ca^2+ mobilization, as described in Example 3.
as §1, §2

trypsin = test: Ca2+ response of myocytes to trypsin pre-incubated with inhibitor; type: cell-based; settings: 1 nM trypsin; 10 mg/ml SBTI, 60 min at 37° C. before assay
Protocol: Ac. Ca^2+ Mobilization by Colonic Myocytes. The activation of PAR-2 in myocytes was assessed by measuring Ca^2+ mobilization, as described in Example 3. Trypsin and AP (SLIGRL-NH2) stimulated a prompt increase in [Ca^2+ ]i.
as §2

Question: What does the source list for `N=C(N)c1ccc2nc(Cc3nc4ccc(C(=N)N)cc4[nH]3)[nH]c2c1` [BABIM, bis(5-amidino-2-benzimidazolyl) methane]?
Answer: inhibition of the [Ca2+]i response to HMC-1 mast cell filtrate (tryptase [1]): 46.5±1% and ~ 50%; Ca2+ response to tryptase after pre-incubation with inhibitor (tryptase [2]): no Ca^2+ response

Question: For `CC(C)(C)c1ccc(OC(=O)[C@H]2CC[C@H](CNC(=N)N)CC2)cc1` [GMCHA-OPhBut, trans-4-guanidinomethylcyclohexane-carboxylic acid 4-tert butylphenyl ester], which “concentrations that inhibit tryptase activity” value (tryptase [3]) is on record?
Answer: 1 to 100 µM

Question: Which “effect of pre-incubation on the effects of trypsin and AP” value ([4]; 100 μM L-NAME for 15 min) does the source give for `COC(=O)[C@@H](N)CCCNC(=N)N[N+](=O)[O-]` [L-NAME, L-N^G -nitro arginine methyl ester] here?
Answer: did not prevent

Question: Which “effect on colonic motility” value ([4]; 30 nM PGE2) does the source give for `CCCCC[C@H](O)/C=C/[C@H]1[C@H](O)CC(=O)[C@@H]1C/C=C\CCCC(=O)O` [PGE2] here?
Answer: inhibited colonic motility

Question: Which “effect of pre-incubation on the response to trypsin and AP” value ([4]; 1 μM indomethacin for 15 min) does the source give for `COc1ccc2c(c1)c(CC(=O)O)c(C)n2C(=O)c1ccc(Cl)cc1` [indomethacin] here?
Answer: had no effect

Question: With `CN1CCC(=C2c3ccccc3CC(=O)c3sccc32)CC1` [ketotifen] as the molecule, how does the “effect on inhibition of GI transit produced by abdominal surgery” value ([5]; cecal manipulation) read?
Answer: partially reversed

Question: And the “effect on transit time in unoperated animals” value ([5]; unoperated)?
Answer: little effect

Question: Which “inhibition of the [Ca2+]i response to HMC-1 mast cell filtrate” value (tryptase [1]; myocytes, filtrate of HMC-1 cells degranulated with substance P) does the source give for `CC(=O)N[C@@H](CC(C)C)C(=O)N[C@@H](CC(C)C)C(=O)N[C@H](C=O)CCCNC(=N)N` [leupeptin] here?
Answer: 46.5±4%

Question: And the “Ca2+ response to tryptase after pre-incubation with inhibitor” value (tryptase [2]; 40 nM tryptase, 1 μM inhibitor, 5 min at room temperature before assay)?
Answer: no Ca^2+ response

Question: Which “effect on amplitude and frequency of contractions” value [4] does the source give for `NC1=N[C@H](O)[C@H]2[C@H]3O[C@]4(O)O[C@@H]([C@@H](O)[C@@]2(N1)[C@@H]4O)[C@]3(O)CO` [tetrodotoxin] here?
Answer: immediate and sustained increase

Question: Which “effect on bradykinin-induced inhibition of spontaneous contractions” value ([4]; 100 nM bradykinin, pre-incubation with 100 nM HOE-140 for 5 min) does the source give for HOE-140 here?
Answer: abolished

Question: And the “effect on the inhibition of colonic motility by trypsin and AP” value ([4]; HOE-140)?
Answer: had no effect

Question: Which “effect on spontaneous contractions” value ([4]; 100 nM bradykinin) does the source give for RPPGFSPFR [bradykinin] here?
Answer: marked inhibition of spontaneous contractions

Question: With SLIGRL-NH2 [AP, SLIGRL-NH2] as the molecule, how does the EC50 (PAR-2; colonic myocytes) read?
Answer: ~1000 nM

Question: For “substance P: used to induce degranulation of HMC-1 mast cells”, which “Ca2+ mobilization in myocytes” value (PAR-2; 100 μM substance P) is on record?
Answer: did not stimulate

Question: Which results are given for “tryptase: mast cell protease released upon degranulation”?
Answer: effect on amplitude of spontaneous contractions ([4]; tryptase at concentrations of up to 90 nM): did not alter the amplitude of spontaneous contractions; EC50 (PAR-2; colonic myocytes): ~100 nM; fold less potent than trypsin (Ca2+ mobilization) (PAR-2; colonic myocytes, tryptase vs trypsin): 100 fold

B1: trypsin: protease that cleaves and activates PAR-2 (protein, UniProt P00760 24-246, looked up)
Serine protease 1: IVGGYTCGANTVPYQVSLNSGYHFCGGSLINSQWVVSAAHCYKSGIQVRLGEDNINVVEGNEQFISASKSIVHPSYNSNTLNNDIMLIKLKSAASLNSRVASISLPTSCASAGTQCLISGWGNTKSSGTSYPDVLKCLKAPILSDSSCKSAYPGQITSNMFCAGYLEGGKDSCQGDSGGPVVCSGKLQGIVSWGSGCAQKNKPGVYTKVCNYVSWIKQTIASN
Question: Which “effect on motility of tetrodotoxin-treated tissues” value [4] does the source give for B1 here?
Answer: inhibited this elevated motility

Question: What about the “fold more potent than AP (colonic motility)” value [4] of the same molecule?
Answer: 10 fold

Question: And the “time to recovery of spontaneous activity after washing” value ([4]; 1 μM trypsin for 5 min, then washed extensively)?
Answer: > 6 h

Question: What about the “inhibition of mean amplitude at highest concentration” value ([4]; 3 μM trypsin) of the same molecule?
Answer: 60%

Question: What about the “threshold for inhibition of mean amplitude of spontaneous contractions” value ([4]; colon strips (mucosa plus muscle)) of the same molecule?
Answer: 300 nM

Question: And the “effect on spontaneous contractions in the absence of the mucosa” value ([4]; colonic strips with mucosa removed)?
Answer: inhibited spontaneous contractions

Question: What about the EC50 ([4]; read-out: EC50, reduction in mean amplitude of spontaneous contractions, colon strips (mucosa plus muscle)) of the same molecule?
Answer: ~500 nM

Question: What about the “delay before inhibition of motility” value ([4]; trypsin at 1 μM, AP concentration not stated) of the same molecule?
Answer: 31 ± 5 s

Question: What about the “fold more potent than AP (Ca2+ mobilization)” value (PAR-2) of the same molecule?
Answer: 1,000 fold

Question: What about the EC50 (PAR-2; colonic myocytes) of the same molecule?
Answer: ~1 nM

B2: SBTI: SBTI, pre-incubated with trypsin before assay; abbreviation not expanded (protein, UniProt P01070 25-205, looked up)
Trypsin inhibitor A: DFVLDNEGNPLENGGTYYILSDITAFGGIRAAPTGNERCPLTVVQSRNELDKGIGTIISSPYRIRFIAEGHPLSLKFDSFAVIMLCVGIPTEWSVVEDLPEGPAVKIGENKDAMDGWFRLERVSDDEFNNYKLVFCPQQAEDDKCGDIGISIDHDDGTRRLVVSKNKPLVVQFQKLDKESL
Question: With B2 as the molecule, how does the “Ca2+ response to trypsin after pre-incubation with inhibitor” value (trypsin) read?
Answer: no Ca^2+ response

From US5958407A, “Ileus treatment method” (The Regents of the Uinversity of California, priority 1998, dated 1999)
